Where a name gives a salt, the structure may show the parent alone. Values belong to the compound of their own block, whether it stands above or below them.
Columns and labels:
A20.2.J = assay: Proliferation test, cell line A20.2.J; assay type: cell-based; conditions: 72 h, tritium-thymidine incorporation, read-out: concentrations at which a 50% inhibition occurs, A20.2.J
Procedure: (§1) Clicks/RPMI 1640 medium (50:50) with L-glutamine and without NaHCO3 in powder form for 10 l (Seromed, Biochrom, Berlin, FRG), is dissolved in 9 l of double-distilled water and sterile-filtered into bottles each containing 900 ml.
(§2) For keeping tumor cells and hybridoma cells, use medium containing 5% FCS is prepared.
(§3) For keeping cell lines, 900 ml of use medium containing 10% FCS, 10 ml of NEA (non-essential amino acids) solution (Gibco), 10 ml of sodium pyruvate solution (100 mM, Gibco) and 5 ml of 10^-2 M mercaptoethanol are mixed.
(§4) The tumor cells or cell lines used in the test are taken from the stock solution in the logarithmic growth phase, washed twice with wash medium and suspended in the appropriate medium.
(§5) The proliferation test is carried out in round-bottom microtiter plates. Compounds of the formula I and interleukins are dissolved in 50 μl each/hollow of the appropriate medium and the cell count (5×10^5) is adjusted with 100 μl/hollow so that a final volume of 200 μl/hollow results. In all tests, the values are determined four times. Cells without preparations and without growth factor are defined as a negative control and cells without preparation with growth factor afford the values for the positive control. The value of the negative control is subtracted from all values determined and the difference of positive control minus negative control is set at 100%.
(§6) The microtiter plates are incubated at 37° C./5% CO2 for 72 h and the proliferation rate is determined correspondingly as in mitogen-induced lymphocyte proliferation. The cell lines were obtained from the strain collection, American Type Culture Collection ("ATCC").

EL 4 = assay: Proliferation test, cell line EL 4; assay type: cell-based; conditions: Mus musculus, EL4; cell line EL 4, 72 h, tritium-thymidine incorporation; read-out: concentrations at which a 50% inhibition occurs, EL 4
Procedure: as §1, §2, §3, §4, §5, §6

Pyruvate kinase DH = assay: BIAcore binding of dehydrogenases to chip coated with compound of Example 2; conditions: compound immobilised on CM5 chip
Procedure: (§7) The starting material is a CM5 chip from Pharmacia Biosensor having a carboxymethyldextran surface (BIApplication Handbook, Ed. 1994, Merck AB, Uppsala, Sweden). The coupling steps are all carried out at a flow rate of 5 μl/min. All steps are carried out at 25° C. using Hepes buffered saline ("HBS") pH 7.4 as the running buffer.
(§8) 1st step: 35 μl of a 1:1 mixture of 0.05 M NHS (N-hydroxysuccinimide) and 0.2 M EDC (N-ethyl-N'-(dimethylaminopropyl)carbodiimide) in order to activate the chip surface.
(§9) 2nd step: 35 μl of a 40 mM cystamine dihydrochloride solution in 0.1 M sodium borate buffer pH 8.5.
(§10) 3rd step: 35 μl of ethanolamine hydrochloride pH 8.5 to saturate unoccupied matrix structures.
(§11) 4th step: 35 μl of 0.1 M dithiothreitol in 0.1 M sodium borate buffer pH 8.5.
(§12) 5th step: 35 μl of a solution containing compound according to Example 2 (10 mg/ml) in 0.1 M sodium borate buffer pH 7.5.
(§13) The analysis was carried out essentially as described in Current Biology, Vol. 3, No. 12, pages 913-915 (1993).
(§14) System: BIAcore® 2000 with corresponding software, Pharmacia Biosensor AB, Uppsala, Sweden
(§15) Chip: CM5 sensor chip, Pharmacia Biosensor AB
(§16) Coating: according to Example 8
(§17) Running buffer: HBS buffer, BIA certified, Pharmacia Biosensor AB
(§18) Injection: 5 min association phase per 50 μl of the sample to be analyzed.
(§19) Rinsing time: 180 sec 3 min dissociation phase
(§20) Regeneration: 2×15 sec using 0.05% sodium dodecylsulfate
(§21) The term "Resonance Units" is a quantitative unit which is proportional to the amount of protein bound.
(§22) DH represents the enzyme designation dehydrogenase

[1] = target: Glyceraldehyde phosphate DH (Homo sapiens, UniProt P04406); assay: as above; conditions: compound immobilised on CM5 chip
Procedure: as §7, §8, §9, §10, §11, §12, §13, §14, §15, §16, §17, §18, §19, §20, §21, §22

Dihydroorotate DH = Dihydroorotate DH (Homo sapiens, UniProt Q02127); assay: as above; conditions: compound immobilised on CM5 chip
Procedure: as §7, §8, §9, §10, §11, §12, §13, §14, §15, §16, §17, §18, §19, §20, §21, §22

Sheep serum albumin = Sheep serum albumin (Ovis aries, UniProt P14639); assay: BIAcore binding of serum albumin to chip coated with compound of Example 2; conditions: compound immobilised on CM5 chip according to Example 8
Procedure: as §7, §8, §9, §10, §11, §12, §13, §14, §15, §16, §17, §18, §19, §20, §21

Human serum albumin = Human serum albumin (Homo sapiens, UniProt P02768); assay: as above; conditions: compound immobilised on CM5 chip according to Example 8
Procedure: as §7, §8, §9, §10, §11, §12, §13, §14, §15, §16, §17, §18, §19, §20, §21

Donkey serum albumin = Donkey serum albumin (Equus asinus, UniProt Q5XLE4); assay: as above; conditions: compound immobilised on CM5 chip according to Example 8
Procedure: as §7, §8, §9, §10, §11, §12, §13, §14, §15, §16, §17, §18, §19, §20, §21

Bovine serum albumin = Bovine serum albumin (Bos taurus, UniProt P02769); assay: as above; conditions: compound immobilised on CM5 chip according to Example 8
Procedure: as §7, §8, §9, §10, §11, §12, §13, §14, §15, §16, §17, §18, §19, §20, §21

Mouse serum albumin = Mouse serum albumin (Mus musculus, UniProt P07724); assay: as above; conditions: compound immobilised on CM5 chip according to Example 8
Procedure: as §7, §8, §9, §10, §11, §12, §13, §14, §15, §16, §17, §18, §19, §20, §21

Rat serum albumin = Rat serum albumin (Rattus norvegicus, UniProt P02770); assay: as above; conditions: compound immobilised on CM5 chip according to Example 8
Procedure: as §7, §8, §9, §10, §11, §12, §13, §14, §15, §16, §17, §18, §19, §20, §21

Chicken serum albumin = target: T1, Chicken serum albumin (Gallus gallus, UniProt P19121); assay: as above; conditions: compound immobilised on CM5 chip according to Example 8
T1 sequence (P19121 24-615): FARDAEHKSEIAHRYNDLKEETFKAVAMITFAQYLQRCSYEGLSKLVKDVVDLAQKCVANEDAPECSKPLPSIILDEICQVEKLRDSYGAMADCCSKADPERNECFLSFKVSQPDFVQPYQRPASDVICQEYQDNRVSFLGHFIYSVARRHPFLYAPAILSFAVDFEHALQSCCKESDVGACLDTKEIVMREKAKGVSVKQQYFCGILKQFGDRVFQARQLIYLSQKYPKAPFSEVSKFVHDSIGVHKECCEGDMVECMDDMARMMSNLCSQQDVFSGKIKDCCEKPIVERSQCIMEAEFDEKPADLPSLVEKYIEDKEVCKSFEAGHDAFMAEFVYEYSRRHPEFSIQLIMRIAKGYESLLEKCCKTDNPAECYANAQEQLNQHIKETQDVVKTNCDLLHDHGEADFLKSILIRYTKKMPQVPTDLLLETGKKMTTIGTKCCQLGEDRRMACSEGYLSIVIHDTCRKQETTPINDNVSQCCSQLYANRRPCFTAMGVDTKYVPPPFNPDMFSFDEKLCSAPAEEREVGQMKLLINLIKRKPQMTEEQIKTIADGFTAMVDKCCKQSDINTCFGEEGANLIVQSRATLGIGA
Procedure: as §7, §8, §9, §10, §11, §12, §13, §14, §15, §16, §17, §18, §19, §20, §21

dehydrogenases = assay: BIAcore comparison of relative binding strengths of the dehydrogenases; conditions: protein concentration of 1 μM; compound immobilised on CM5 chip
Procedure: as §13, §14, §15, §16, §17, §18, §19, §20
The relative binding strengths of the dehydrogenases investigated were compared with one another at a defined protein concentration.

K562 = assay: Proliferation test, cell line K562; assay type: cell-based; conditions: Homo sapiens; cell line K562, 72 h, tritium-thymidine incorporation; read-out: concentrations at which a 50% inhibition occurs, K562
Procedure: as §1, §2, §3, §4
as §5, with “Cells without preparations and without growth factor are defined as a negative control and cells without preparation with growth factor afford the values for the positive control.” left out
The microtiter plates are incubated at 37° C./5% CO2 for 72 h and the proliferation rate is determined correspondingly as in mitogen-induced lymphocyte proliferation. […]

RAW 264.7 cells = assay: Comparative affinity chromatography of LPS-stimulated, leflunomide-treated RAW 264.7 cytosol extracts; assay type: cell-based; conditions: RAW 264.7, 10 ng LPS/ml plus 60 μM A 77 1726B, 24 hours; FRACTOGEL column derivatized according to Example 10
From the text: The stimulation of the macrophage cell line RAW 264.7 with lipopolysaccharide was used as an in vitro model for inflammatory processes. Lipopolysaccharide ("LPS") is an essential structural constituent of the outer membrane of Gram-negative bacteria and is recognized as such by immune cells of almost all organisms. In particular, macrophages are activated by LPS stimulation to synthesize a number of cytokines such as TNF-α, IL-1 and IL-6. Potential changes in the protein pattern which accompany this stimulation should be prevented by the simultaneous administration of the immunoregulatory preparation leflunomide.
RAW 264.7 cells were incubated with 10 ng of LPS/ml of culture medium for 24 hours. In the case of LPS-stimulated, leflunomide-treated cells, incubation was simultaneously carried out with 60 μM A 77 1726B for 24 hours. The cells were processed and the cytosolic extracts investigated by affinity chromatography with the aid of the FRACTOGEL® column derivatized according to Example 10. The preparation fractions of these three batches were then applied to an analytical gradient gel and compared with one another.

Glyceraldehyde phosphate DH, sequence (P04406 whole entry): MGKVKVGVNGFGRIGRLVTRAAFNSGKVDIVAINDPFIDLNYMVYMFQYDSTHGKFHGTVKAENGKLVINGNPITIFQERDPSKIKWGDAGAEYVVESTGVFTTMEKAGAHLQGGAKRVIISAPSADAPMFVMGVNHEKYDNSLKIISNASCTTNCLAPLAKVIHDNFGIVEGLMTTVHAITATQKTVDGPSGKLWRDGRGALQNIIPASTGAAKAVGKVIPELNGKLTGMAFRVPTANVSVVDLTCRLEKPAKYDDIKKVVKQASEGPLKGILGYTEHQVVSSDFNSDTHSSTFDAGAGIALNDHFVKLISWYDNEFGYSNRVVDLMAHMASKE
Dihydroorotate DH, sequence (Q02127 whole entry): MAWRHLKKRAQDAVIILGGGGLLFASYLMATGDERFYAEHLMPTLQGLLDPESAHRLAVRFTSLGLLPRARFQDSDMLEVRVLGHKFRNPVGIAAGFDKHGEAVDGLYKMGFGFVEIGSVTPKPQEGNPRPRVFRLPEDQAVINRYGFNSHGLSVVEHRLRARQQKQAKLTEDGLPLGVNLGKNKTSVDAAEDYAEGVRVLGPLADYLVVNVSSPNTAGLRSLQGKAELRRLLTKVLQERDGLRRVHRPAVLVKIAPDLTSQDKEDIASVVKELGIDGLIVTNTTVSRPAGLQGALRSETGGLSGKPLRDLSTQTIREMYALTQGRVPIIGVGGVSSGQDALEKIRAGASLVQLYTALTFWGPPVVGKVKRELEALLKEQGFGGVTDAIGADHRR
Mouse serum albumin, sequence (P07724 25-608): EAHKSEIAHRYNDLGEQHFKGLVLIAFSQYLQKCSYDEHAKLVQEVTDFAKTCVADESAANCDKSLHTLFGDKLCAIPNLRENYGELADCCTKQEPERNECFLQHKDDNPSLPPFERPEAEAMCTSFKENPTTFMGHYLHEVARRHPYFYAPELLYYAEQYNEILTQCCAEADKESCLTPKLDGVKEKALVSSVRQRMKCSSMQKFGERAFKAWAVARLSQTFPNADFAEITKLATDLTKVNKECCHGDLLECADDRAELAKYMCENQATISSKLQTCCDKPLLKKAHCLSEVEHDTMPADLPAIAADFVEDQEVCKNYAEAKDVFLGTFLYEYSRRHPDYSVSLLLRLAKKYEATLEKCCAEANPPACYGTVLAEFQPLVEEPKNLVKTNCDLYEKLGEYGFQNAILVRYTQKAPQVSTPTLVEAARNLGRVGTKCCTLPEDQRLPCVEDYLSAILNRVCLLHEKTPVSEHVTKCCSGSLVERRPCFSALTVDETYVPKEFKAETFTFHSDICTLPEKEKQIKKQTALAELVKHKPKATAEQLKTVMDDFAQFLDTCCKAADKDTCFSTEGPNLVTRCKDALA
Donkey serum albumin, sequence (Q5XLE4 25-607): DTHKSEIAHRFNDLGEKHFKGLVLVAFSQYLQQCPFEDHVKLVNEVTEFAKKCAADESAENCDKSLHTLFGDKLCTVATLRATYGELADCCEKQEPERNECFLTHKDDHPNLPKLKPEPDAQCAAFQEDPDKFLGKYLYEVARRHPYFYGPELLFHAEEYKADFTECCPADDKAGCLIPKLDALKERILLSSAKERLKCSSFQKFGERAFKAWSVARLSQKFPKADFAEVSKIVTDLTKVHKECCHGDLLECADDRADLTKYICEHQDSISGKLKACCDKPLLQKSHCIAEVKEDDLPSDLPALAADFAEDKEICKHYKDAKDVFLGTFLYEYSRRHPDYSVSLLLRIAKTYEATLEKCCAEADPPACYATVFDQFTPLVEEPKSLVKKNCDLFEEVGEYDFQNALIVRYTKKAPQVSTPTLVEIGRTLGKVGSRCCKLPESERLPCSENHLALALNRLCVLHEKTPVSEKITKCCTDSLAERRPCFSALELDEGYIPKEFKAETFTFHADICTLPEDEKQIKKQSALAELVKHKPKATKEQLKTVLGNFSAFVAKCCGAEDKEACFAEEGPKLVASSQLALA
Sheep serum albumin, sequence (P14639 25-607): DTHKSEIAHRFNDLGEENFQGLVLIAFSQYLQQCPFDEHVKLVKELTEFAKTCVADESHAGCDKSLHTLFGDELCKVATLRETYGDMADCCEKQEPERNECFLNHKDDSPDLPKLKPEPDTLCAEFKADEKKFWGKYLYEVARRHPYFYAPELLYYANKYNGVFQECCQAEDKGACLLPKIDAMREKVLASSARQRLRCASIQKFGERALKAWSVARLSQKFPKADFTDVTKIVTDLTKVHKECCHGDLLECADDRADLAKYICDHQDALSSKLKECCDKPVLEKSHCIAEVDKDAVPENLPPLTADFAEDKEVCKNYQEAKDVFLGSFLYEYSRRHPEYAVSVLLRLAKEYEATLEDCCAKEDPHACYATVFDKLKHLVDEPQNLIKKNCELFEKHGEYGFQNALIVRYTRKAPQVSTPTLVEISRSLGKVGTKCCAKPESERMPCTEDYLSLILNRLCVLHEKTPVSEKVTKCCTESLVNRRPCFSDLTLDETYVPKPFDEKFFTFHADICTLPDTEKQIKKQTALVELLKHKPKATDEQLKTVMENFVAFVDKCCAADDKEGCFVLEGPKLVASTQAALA
Human serum albumin, sequence (P02768 25-609): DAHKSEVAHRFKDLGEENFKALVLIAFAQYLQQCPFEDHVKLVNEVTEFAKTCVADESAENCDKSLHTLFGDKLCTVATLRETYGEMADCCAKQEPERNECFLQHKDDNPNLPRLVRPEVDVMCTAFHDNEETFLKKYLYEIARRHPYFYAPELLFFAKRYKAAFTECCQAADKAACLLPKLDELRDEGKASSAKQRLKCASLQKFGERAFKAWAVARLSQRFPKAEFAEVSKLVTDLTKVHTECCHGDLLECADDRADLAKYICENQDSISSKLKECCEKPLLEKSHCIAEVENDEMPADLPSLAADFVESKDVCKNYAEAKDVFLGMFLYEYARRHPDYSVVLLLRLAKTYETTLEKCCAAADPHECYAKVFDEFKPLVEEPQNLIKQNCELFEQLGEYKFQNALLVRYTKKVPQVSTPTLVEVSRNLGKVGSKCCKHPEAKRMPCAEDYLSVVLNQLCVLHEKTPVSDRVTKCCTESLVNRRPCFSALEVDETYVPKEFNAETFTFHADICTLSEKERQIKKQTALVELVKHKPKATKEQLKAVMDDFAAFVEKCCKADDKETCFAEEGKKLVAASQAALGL
Rat serum albumin, sequence (P02770 25-608): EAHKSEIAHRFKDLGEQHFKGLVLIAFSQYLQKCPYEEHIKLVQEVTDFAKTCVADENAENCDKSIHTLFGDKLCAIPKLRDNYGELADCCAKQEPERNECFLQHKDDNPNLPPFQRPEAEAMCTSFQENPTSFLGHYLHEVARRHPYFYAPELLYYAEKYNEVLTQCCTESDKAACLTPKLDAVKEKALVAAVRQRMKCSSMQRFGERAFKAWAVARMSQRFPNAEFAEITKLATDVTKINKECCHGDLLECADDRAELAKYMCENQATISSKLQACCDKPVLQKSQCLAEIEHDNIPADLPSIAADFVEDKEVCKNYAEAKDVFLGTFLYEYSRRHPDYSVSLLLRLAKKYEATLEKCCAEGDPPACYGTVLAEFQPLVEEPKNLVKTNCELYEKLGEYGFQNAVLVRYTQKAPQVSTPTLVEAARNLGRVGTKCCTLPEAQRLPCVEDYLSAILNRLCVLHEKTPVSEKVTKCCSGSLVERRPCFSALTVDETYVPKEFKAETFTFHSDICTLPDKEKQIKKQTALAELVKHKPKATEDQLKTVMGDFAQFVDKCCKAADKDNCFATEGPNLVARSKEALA
Bovine serum albumin, sequence (P02769 25-607): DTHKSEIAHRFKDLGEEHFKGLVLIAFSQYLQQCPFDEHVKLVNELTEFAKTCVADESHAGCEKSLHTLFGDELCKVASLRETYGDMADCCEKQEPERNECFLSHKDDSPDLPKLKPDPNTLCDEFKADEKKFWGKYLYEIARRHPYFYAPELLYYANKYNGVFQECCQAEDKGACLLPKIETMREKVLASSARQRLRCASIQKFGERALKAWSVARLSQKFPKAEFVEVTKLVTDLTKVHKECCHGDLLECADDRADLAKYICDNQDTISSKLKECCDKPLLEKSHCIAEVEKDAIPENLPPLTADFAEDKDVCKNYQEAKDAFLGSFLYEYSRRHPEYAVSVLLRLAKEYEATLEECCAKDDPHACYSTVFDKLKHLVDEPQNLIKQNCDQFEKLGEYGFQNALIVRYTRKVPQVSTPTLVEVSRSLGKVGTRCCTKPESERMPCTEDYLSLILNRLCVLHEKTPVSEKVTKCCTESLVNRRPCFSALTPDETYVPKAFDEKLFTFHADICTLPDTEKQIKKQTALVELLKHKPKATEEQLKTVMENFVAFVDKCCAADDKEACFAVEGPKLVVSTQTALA

SMILES: CC(O)=C(C#N)C(=O)Nc1ccc(OCCCI)cc1 [Example 5, 2-Cyano-3-hydroxybut-2-enecarboxylic acid (4-(3-iodopropoxy)phenyl)amide]
IC50 (A20.2.J): 50 µM
IC50 (EL 4): 25 µM

Resonance Units, binding of Pyruvate kinase DH (Pyruvate kinase DH; enzyme 50 nM): 85 Resonance Units
Resonance Units, binding of Pyruvate kinase DH (Pyruvate kinase DH; enzyme 100 nM): 189 Resonance Units
Resonance Units, binding of Pyruvate kinase DH (Pyruvate kinase DH; enzyme 250 nM): 505 Resonance Units
Resonance Units, binding of Glyceraldehyde phosphate DH ([1]; enzyme 25 nM): 69 Resonance Units
Resonance Units, binding of Glyceraldehyde phosphate DH ([1]; enzyme 50 nM): 148 Resonance Units
Resonance Units, binding of Glyceraldehyde phosphate DH ([1]; enzyme 100 nM): 297 Resonance Units
Resonance Units, binding of Glyceraldehyde phosphate DH ([1]; enzyme 250 nM): 603 Resonance Units
Resonance Units, binding of Dihydroorotate DH (Dihydroorotate DH; enzyme 50 nM): 203 Resonance Units
Resonance Units, binding of Dihydroorotate DH (Dihydroorotate DH; enzyme 100 nM): 425 Resonance Units
Resonance Units, binding of Dihydroorotate DH (Dihydroorotate DH; enzyme 250 nM): 1064 Resonance Units
Resonance Units, binding of serum albumin (Sheep serum albumin): 331 Resonance Units
Resonance Units, binding of serum albumin (Human serum albumin): 294 Resonance Units
Resonance Units, binding of serum albumin (Donkey serum albumin): 480 Resonance Units
Resonance Units, binding of serum albumin (Bovine serum albumin): 50 Resonance Units
Resonance Units, binding of serum albumin (Mouse serum albumin): 151 Resonance Units
Resonance Units, binding of serum albumin (Rat serum albumin): 1061 Resonance Units
Resonance Units, binding of serum albumin (Chicken serum albumin): 8 Resonance Units
IC50 (K562): 20 µM
SMILES: CC(O)=C(C#N)C(=O)Nc1ccc(NC(=O)CBr)cc1 [Example 2]
IC50 (A20.2.J): 15 µM
relative binding strengths of the dehydrogenases (dehydrogenases): the binding of the dihydroorotate DH was the strongest, followed by lactate DH, glyceraldehyde phosphate DH and pyruvate kinase
IC50 (EL 4): 6 µM

IC50 (K562): 50 µM
SMILES: Cc1oncc1C(=O)Nc1ccc(NC(=O)CBr)cc1 [Example 1, 5-Methylisoxazole4-carboxylic acid (4-(2-bromoacetylamino)phenyl)amide]
IC50 (A20.2.J): 0.8 µM
IC50 (EL 4): 0.8 µM

SMILES: CC(O)=C(C#N)C(=O)Nc1ccc(C(F)(F)F)cc1 [A 77 1726B, sodium salt of N-(4-trifluoromethylphenyl)-2-cyano-3-hydroxycrotonamide]
intensity of band around 35 kDa (malate dehydrogenase) in the preparation fraction (RAW 264.7 cells): markedly increased

— patent US6265588A, “Isoxazole and crotonamide derivatives and their use as pharmaceuticals and diagnostics” (Aventis Pharma Deutschland GmbH, priority 1997, dated 2001)
